This is an account of results in PubChem BioAssay AID1996.

SMILES strings stand for the structures. Values after ≈ are worked out from the molar mass of the structure shown. Bounds are passed on as bounds.

For this data set the following is noted: buffer; pH 7.4; 200.0 µM.
As a reminder, the solubility (kinetic) is the concentration staying in solution when a stock, usually in DMSO, is diluted into the medium. `Nc1cccc(-n2cccc2)c1` returned a kinetic solubility of 18.2 µg/mL (≈ 115 µM). On to `Nc1[nH]c(=O)[nH]c(=O)c1N=Nc1ccc(C(=O)O)cc1`, for which the kinetic solubility is greater than 41.3 µg/mL. Turning to `O=C(Oc1ccc(Oc2ccccc2)cc1)N1CCC(O)CC1`, the kinetic solubility turned out to be 34.9 µg/mL (≈ 111 µM). To `CC(C)n1cnc2cc(NCc3ccccc3O)ccc21` belongs 32 µg/mL (≈ 114 µM); to `CCC(=O)c1ccc(OC(=O)c2cnccn2)cc1`, greater than 38.4 µg/mL; to `O=C(c1ccncc1)c1ccc(NC(=O)c2cccs2)cc1`, 45.9 µg/mL (≈ 149 µM). `CCc1cccc(C)c1NS(=O)(=O)c1cccs1`: the kinetic solubility was 14.6 µg/mL (≈ 51.9 µM). `Cc1ccccc1NC(=O)c1ccccn1` returned a solubility (kinetic) of 28.9 µg/mL (≈ 136 µM).

Turning to `OCCNCCc1c[nH]c2ccc(OCc3ccccc3)cc12`, the kinetic solubility is greater than 46.6 µg/mL. To `NC(=O)c1ccsc1NC(=O)COC(=O)c1cccnc1Cl` belongs 4.7 µg/mL (≈ 13.8 µM); to `CCCn1c(SCC(=O)N2CC(=O)Nc3ccccc32)n[nH]c1=O`, greater than 52.1 µg/mL. In the case of `CN(c1cccc(NC(=O)c2cccc([N+](=O)[O-])c2)c1)S(C)(=O)=O`, the solubility (kinetic) is greater than 52.4 µg/mL. To `O=C(CSc1nc2ccccc2[nH]1)c1c[nH]c2ccccc12` belongs 0.6 µg/mL (≈ 1.95 µM); to `COc1ccc(/C=C/C2=CCN(C)CC2)cc1.Cl`, greater than 39.9 µg/mL. As to `CC(C)Oc1cccc(C(=O)C2CCCN(C(=O)c3ccsc3)C2)c1` (configuration not stated), the kinetic solubility worked out at 44.8 µg/mL (≈ 125 µM).

In the case of `O=C(COC(=O)c1ccc(Br)c(S(=O)(=O)N2CCOCC2)c1)NCCc1ccccc1`, the solubility (kinetic) came out at 24.1 µg/mL (≈ 47.1 µM). To `O=C1Nc2ccccc2/C1=C/c1ccnc2ccccc12` belongs 3.5 µg/mL (≈ 12.9 µM); to `Cc1cccc(OCC(=O)NCC(c2ccco2)N2CCCC2)c1` (configuration not stated), greater than 49.3 µg/mL. To `Cl.Fc1ccc(-c2ccc(CNCc3ccccn3)o2)cc1` belongs 33.9 µg/mL; to `CC1(C(=O)Nc2nc3ccc(S(C)(=O)=O)cc3s2)CC1(Cl)Cl` (configuration not stated), 52.1 µg/mL (≈ 137 µM); to `COc1cc(C(=O)OCc2cc(=O)n3ccsc3n2)ccc1OC(C)C`, 5.3 µg/mL (≈ 14.2 µM). With `Cc1ccc(/C=C/C(=O)O)cc1S(=O)(=O)N1CCc2ccccc21` the figure was greater than 51.5 µg/mL; with `Nc1ccc(SC(F)(F)F)cc1`, 6 µg/mL (≈ 31.1 µM).

`O=C(Nc1nccs1)c1cccnc1Cl`: the solubility (kinetic) is greater than 36 µg/mL. To `CCc1ccc(NS(=O)(=O)c2c(C)noc2C)cc1` belongs greater than 42.1 µg/mL; to `Cc1cc(OCC(O)CN2CCOCC2)cc(C)c1Cl.Cl` (configuration not stated), 45.2 µg/mL; to `O=C(CSc1ccccn1)N1CCc2ccccc21`, 3.7 µg/mL (≈ 13.7 µM). `O=C1Nc2ccc(Br)cc2C(c2ccccc2)=NC1O` (configuration not stated) had a solubility (kinetic) greater than 49.7 µg/mL. In the case of `COc1ccc(-n2c(CCC(=O)O)ccc2-c2ccccc2)cc1`, the solubility (kinetic) was greater than 48.2 µg/mL. To `NC(=O)COC(=O)CC(c1ccccc1)c1ccccc1` belongs greater than 42.5 µg/mL; to `O=C1CSC(c2ccccn2)N1c1ccc(F)cc1F` (configuration not stated), greater than 43.8 µg/mL. To `Cc1ccc(NC(=O)COC(=O)C2CC2)cc1S(=O)(=O)N1CCOCC1` belongs greater than 57.4 µg/mL; to `Cc1ccc(OCCn2c(=S)[nH]c3ccccc32)c(C(C)C)c1`, less than 0.3 µg/mL; to `CC(=O)c1c(C)[nH]c(C(=O)Nc2cccc(S(=O)(=O)N3CCCC3)c2)c1C`, 7 µg/mL (≈ 18 µM).

The compound `O=C(CSc1nc2ccccc2[nH]1)NC1CCCC1` displayed a solubility (kinetic) of 38.7 µg/mL (≈ 141 µM). For `C=CCn1c(O)c(C(CC)=Nc2ccc(NC(C)=O)cc2)c(=O)[nH]c1=O`, the kinetic solubility was greater than 53.5 µg/mL. Regarding `CCCn1c(=O)c2[nH]cnc2n(-c2ccccc2C)c1=O`, the kinetic solubility is greater than 42.6 µg/mL. With `Cc1cc(NC(=O)CSc2nnc(-c3ccccc3F)n2N)no1` the figure was greater than 52.3 µg/mL. With `COc1ccc(N2C(S)=C(C#N)C(=O)NC23CCCCC3)cc1` the figure was 19.3 µg/mL (≈ 58.6 µM); with `COc1ccc(Cl)cc1S(=O)(=O)Nc1ccc(Cl)cn1`, 1.3 µg/mL (≈ 3.9 µM); with `CC(CCc1ccccc1)NC(=O)CSc1ccccn1` (configuration not stated), 34.6 µg/mL (≈ 115 µM). To `CC(C)(C)NCc1ccc(OCc2cccs2)cc1.Cl` belongs 36.8 µg/mL.
